Assays:
AfuSPL [1] = target: T1, AfuSPL (Aspergillus fumigatus, UniProt Q4WPU3); experiment: fluorimetric lyase assay; type: biochemical; conditions: 1 mM inhibitor, fluorogenic S1P substrate, pH 7.4, 37 °C
T1 construct: gene AFUA_4G10470; cytosolic catalytic domain, Δ1-81, C-terminal His tag, pET28, E. coli BL21 with GroEL/GroES (pGro7), about 50 kDa subunit, dimer
T1 sequence (Q4WPU3 82-572): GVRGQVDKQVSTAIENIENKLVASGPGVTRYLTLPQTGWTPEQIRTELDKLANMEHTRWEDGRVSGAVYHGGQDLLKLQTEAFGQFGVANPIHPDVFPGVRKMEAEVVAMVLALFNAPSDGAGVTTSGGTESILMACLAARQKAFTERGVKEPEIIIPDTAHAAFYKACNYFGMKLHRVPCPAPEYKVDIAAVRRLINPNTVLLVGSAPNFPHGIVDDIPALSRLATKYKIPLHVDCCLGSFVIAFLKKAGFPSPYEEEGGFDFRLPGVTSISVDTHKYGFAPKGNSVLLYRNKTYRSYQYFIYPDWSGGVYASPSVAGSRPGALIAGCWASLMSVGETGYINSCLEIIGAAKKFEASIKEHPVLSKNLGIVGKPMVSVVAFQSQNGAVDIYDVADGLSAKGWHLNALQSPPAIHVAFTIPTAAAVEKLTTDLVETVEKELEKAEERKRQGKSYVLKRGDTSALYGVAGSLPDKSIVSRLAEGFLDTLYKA

AfuSPL [2] = target: T1, AfuSPL; experiment: fluorimetric lyase assay, global fit to competitive inhibition model; type: biochemical
Excerpt: fluorimetric lyase assay, global fit to competitive inhibition model on AfuSPL | From a global fitting of the data we estimated their KI values

hSPL = target: T2, hSPL (Homo sapiens, UniProt O95470); experiment: as above; type: biochemical
T2 construct: gene SGPL1
T2 sequence (O95470 81-568): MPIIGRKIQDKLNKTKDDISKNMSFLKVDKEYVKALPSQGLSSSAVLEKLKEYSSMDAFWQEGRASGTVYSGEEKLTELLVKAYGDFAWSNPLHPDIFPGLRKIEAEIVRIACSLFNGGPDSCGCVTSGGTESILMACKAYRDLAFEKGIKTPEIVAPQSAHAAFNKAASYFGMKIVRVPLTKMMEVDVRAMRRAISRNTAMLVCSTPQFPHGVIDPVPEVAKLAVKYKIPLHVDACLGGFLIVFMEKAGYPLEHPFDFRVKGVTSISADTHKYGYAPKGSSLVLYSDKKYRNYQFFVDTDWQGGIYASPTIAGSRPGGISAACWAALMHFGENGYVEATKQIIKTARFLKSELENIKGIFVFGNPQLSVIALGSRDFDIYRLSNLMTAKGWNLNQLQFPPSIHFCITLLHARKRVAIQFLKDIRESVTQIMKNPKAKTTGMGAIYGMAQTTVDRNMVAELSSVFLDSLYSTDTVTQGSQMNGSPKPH
Excerpt: fluorimetric lyase assay, global fit to competitive inhibition model on hSPL | From a global fitting of the data we estimated their KI values

[3] = system: N[C@@H](COP(=O)(O)O)[C@H](O)CCOc1ccc2ccc(=O)oc2c1; experiment: purified protein; conditions: 100 mM Hepes pH 7.4, 0.1 mM EDTA, 0.05% Triton X-100, 100 μM PLP, 37 °C

C[C@@H]1CN(c2nnc(Cc3ccccc3)c3ccc(Cl)cc23)CCN1c1ccc(C#N)cn1 [30J, 6-[(2R)-4-(4-benzyl-7-chlorophthalazin-1-yl)-2-methylpiperazin-1-yl]pyridine-3-carbonitrile]
% inhibition at 1 mM (AfuSPL [1]): without any significant effect on the activity of AfuSPL

CCCOC(=O)c1c(NC(=O)CCCC(=O)Nc2sc3c(c2C(=O)OCCC)CCCCC3)sc2c1CCCCC2 [C17]
Ki (AfuSPL [2]): 270 ± 80 µM | Ki (hSPL): 240 ± 50 µM

AfuSPL (Aspergillus fumigatus Af293)
Km [3]: 3.1 ± 0.4 mM | kcat [3]: 0.103 ± 0.007 s⁻¹

Reference: publication PMC10733307, “Dual species sphingosine-1-phosphate lyase inhibitors to combine antifungal and anti-inflammatory activities in cystic fibrosis: a feasibility study” (Scientific Reports, 2023)
